Results taken from ChEMBL document CHEMBL6096686, “Lanosterol 14α-Demethylase (CYP51)/Heat Shock Protein 90 (Hsp90) Dual Inhibitors for the Treatment of Invasive Candidiasis” (J Med Chem, 2025).
≈ marks a conversion by molar mass, not a printed value. Calls of active or inactive are those of the source. No cut-off for these calls is given here.

Key:
[1] = system: Nakaseomyces glabratus; assay: Antifungal activity against Candida glabrata 7804 incubated for 48 hrs by CLSI based liquid microdilution technique; type: functional
[2] = system: Candida albicans; assay: Antifungal activity against Candida albicans SC5314 assessed as reduction in fungal growth at 8 ug/ml incubated for 48 hrs (reference value: 8.17 log10CFU/ml); type: functional; conditions: dose 8 µg/ml
[3] = system: Candida albicans; assay: Antifungal activity against Candida albicans SC5314 infected in immunosuppressed ICR mouse assessed as reduction in fungal burden in kidney at 10 mg/kg, ip treated for 5 days consecutively (reference value: 6.71 log10CFU/ml); type: functional; conditions: time 5 day
[4] = system: Candida albicans; assay: Antifungal activity against Candida albicans SC5314 assessed as decrease in TEC1 mRNA level at 4 ug/ml measured after 24 hrs by real time RT-PCR analysis; type: functional, organism-based; conditions: dose 4.0 µg/ml
[5] = system: Candida albicans; assay: Antifungal activity against Candida albicans SC5314 infected in immunosuppressed ICR mouse administered intraperitoneally treated for 5 days consecutively; type: functional, organism-based; conditions: dose 5-20 mg/kg, route ip, time 5.0 day
[6] = system: Candida albicans; assay: Antifungal activity against Candida albicans SC5314 infected in immunosuppressed ICR mouse assessed as reduction in fungal burden in kidney at 5 mg/kg, ip treated for 5 days consecutively (reference value: 6.71 log10CFU/ml); type: functional; conditions: time 5 day
[7] = Cytotoxicity against human L02 cells measured after 72 hrs by CCK8 assay; type: toxicity, cell-based
[8] = system: Candida albicans; assay: Antifungal activity against Candida albicans SC5314 harboring HSP90 monoallelic knockout incubated for 48 hrs by CLSI based liquid microdilution technique; type: functional
[9] = system: Candida albicans; assay: Inhibition of yeast to hypha transition in Candida albicans SC5314 at 4 ug/ml incubated for 2.5 hrs by inverted microscopy; type: functional, organism-based; conditions: dose 4.0 µg/ml
[10] = system: Pichia kudriavzevii; assay: Antifungal activity against Candida krusei 10153 incubated for 48 hrs by CLSI based liquid microdilution technique; type: functional
[11] = system: Candida albicans; assay: Antifungal activity against Candida albicans SC5314 assessed as decrease in ZAP1 mRNA level at 4 ug/ml measured after 24 hrs by real time RT-PCR analysis; type: functional, organism-based; conditions: dose 4.0 µg/ml
[12] = system: Candida albicans; assay: Antifungal activity against Candida albicans SC5314 assessed as fungal growth inhibition at 4 ug/ml incubated for 48 hrs by spot-plating method; type: functional, organism-based; conditions: dose 4.0 µg/ml
[13] = target: T1, Lanosterol 14-alpha demethylase (Candida albicans (strain SC5314 / ATCC MYA-2876) (Yeast), UniProt P10613); assay: Inhibition of CYP51 in Candida albicans SC5314 assessed as decrease in ERG6 mRNA level at 4 ug/ml measured after 24 hrs by real time RT-PCR analysis; conditions: at 4 µg/mL
[14] = system: Candida albicans; assay: Antifungal activity against Candida albicans SC5314 assessed as decrease in EFG1 mRNA level at 4 ug/ml measured after 24 hrs by real time RT-PCR analysis; type: functional, organism-based; conditions: dose 4.0 µg/ml
[15] = target: T1, Lanosterol 14-alpha demethylase; assay: Inhibition of CYP51 in Candida albicans SC5314 assessed as decrease in ERG27 mRNA level at 4 ug/ml measured after 24 hrs by real time RT-PCR analysis; conditions: at 4 µg/mL
[16] = target: Heat shock protein 90 homolog (Candida albicans (strain SC5314 / ATCC MYA-2876) (Yeast), UniProt P46598); assay: Inhibition of HSP90 extracted from Candida albicans SC5314 lysate using FITC-Geldanamycin as substrate incubated for 6 hrs by fluorescence polarization assay; type: subcellular
[17] = system: Candida albicans; assay: Antifungal activity against Candida albicans SC5314 infected in immunosuppressed ICR mouse assessed as reduction in fungal burden in kidney at 20 mg/kg, ip treated for 5 days consecutively (reference value: 6.71 log10CFU/ml); type: functional; conditions: time 5 day
[18] = system: Candida albicans; assay: Antifungal activity against Candida albicans SC5314 assessed as decrease in RLM1 mRNA level at 4 ug/ml measured after 24 hrs by real time RT-PCR analysis; type: functional, organism-based; conditions: dose 4.0 µg/ml
[19] = system: Candida albicans; assay: Inhibition of biofilm formation in Candida albicans SC5314 incubated for 24 hrs by XTT reduction method; type: functional, organism-based; conditions: dose <= 32.0 µg/ml
[20] = system: Candida albicans; assay: Inhibition of biofilm formation in Candida albicans SC5314 at 4 ug/ml incubated for 24 hrs by XTT reduction method relative to control; type: functional
[21] = target: T1, Lanosterol 14-alpha demethylase; assay: Inhibition of CYP51 in Candida albicans SC5314 assessed as decrease in ERG26 mRNA level at 4 ug/ml measured after 24 hrs by real time RT-PCR analysis; conditions: at 4 µg/mL
[22] = system: Cryptococcus neoformans; assay: Antifungal activity against Cryptococcus neoformans H99 incubated for 72 hrs by CLSI based liquid microdilution technique; type: functional
[23] = target: Heat shock protein HSP90 (Homo sapiens, UniProt P07900+P08238); assay: Inhibition of human HSP90 using FITC-Geldanamycin as substrate incubated for 6 hrs by fluorescence polarization assay; type: protein assay
[24] = system: Candida albicans; assay: Antifungal activity against Candida albicans SC5314 assessed as decrease in EAP1 mRNA level at 4 ug/ml measured after 24 hrs by real time RT-PCR analysis; type: functional, organism-based; conditions: dose 4.0 µg/ml
[25] = system: Candida albicans; assay: Antifungal activity against Candida albicans SC5314 assessed as decrease in BCR1 mRNA level at 4 ug/ml measured after 24 hrs by real time RT-PCR analysis; type: functional, organism-based; conditions: dose 4.0 µg/ml
[26] = system: Candida albicans; assay: Antifungal activity against Candida albicans SC5314 assessed as decrease in ALS3 mRNA level at 4 ug/ml measured after 24 hrs by real time RT-PCR analysis; type: functional, organism-based; conditions: dose 4.0 µg/ml
[27] = system: Candida albicans; assay: Antifungal activity against Candida albicans SC5314 assessed as decrease in HWP1 mRNA level at 4 ug/ml measured after 24 hrs by real time RT-PCR analysis; type: functional, organism-based; conditions: dose 4.0 µg/ml
[28] = system: Candida albicans; assay: Antifungal activity against Candida albicans SC5314 assessed as decrease in CPH1 mRNA level at 4 ug/ml measured after 24 hrs by real time RT-PCR analysis; type: functional, organism-based; conditions: dose 4.0 µg/ml
[29] = system: Candida albicans; assay: Selectivity index, ratio of MIC80 antifungal activity against Candida albicans SC5314 to MIC80 for antifungal activity against Candida albicans SC5314 harboring HSP90 monoallelic knockout; type: functional
[30] = system: Candida albicans; assay: Antifungal activity against Candida albicans SC5314 assessed as fungal growth inhibition incubated for 48 hrs by spot-plating method; type: functional, organism-based; conditions: dose 4-32 µg/ml
[31] = Cytotoxicity against HUVEC cells measured after 72 hrs by CCK8 assay; type: toxicity, cell-based; conditions: human
[32] = system: Candida albicans; assay: Inhibition of biofilm formation in Candida albicans SC5314 at 0.5 ug/ml incubated for 24 hrs by XTT reduction method relative to control; type: functional
[33] = system: Candida albicans; assay: Inhibition of yeast to hypha transition in Candida albicans SC5314 at 8 ug/ml incubated for 2.5 hrs by inverted microscopy relative to control; type: functional
[34] = target: T1, Lanosterol 14-alpha demethylase; assay: Inhibition of CYP51 in Candida albicans SC5314 assessed as decrease in ERG3 mRNA level at 4 ug/ml measured after 24 hrs by real time RT-PCR analysis; conditions: at 4 µg/mL
[35] = system: Candida albicans; assay: Antifungal activity against Candida albicans SC5314 assessed as decrease in ACE2 mRNA level at 4 ug/ml measured after 24 hrs by real time RT-PCR analysis; type: functional, organism-based; conditions: dose 4.0 µg/ml
[36] = system: Candida albicans; assay: Antifungal activity against Candida albicans SC5314 incubated for 48 hrs by CLSI based liquid microdilution technique; type: functional
[37] = target: T1, Lanosterol 14-alpha demethylase; assay: Inhibition of CYP51 in Candida albicans SC5314 assessed as accumulation of eburicol at 4 ug/ml measured after 48 hrs by GC-MS analysis; conditions: at 4 µg/mL
[38] = system: Candida albicans; assay: Antifungal activity against Candida albicans SC5314 assessed as fungal growth inhibition at 4 ug/ml incubated for 48 hrs; type: functional, organism-based; conditions: dose 4.0 µg/ml
[39] = system: Candida albicans; assay: Antifungal activity against Candida albicans SC5314 assessed as fungal growth inhibition at 32 ug/ml incubated for 48 hrs by spot-plating method relative to control; type: functional
[40] = system: Candida albicans; assay: Inhibition of biofilm formation in Candida albicans SC5314 at 32 ug/ml incubated for 24 hrs by XTT reduction method relative to control; type: functional

T1 sequence (P10613 whole entry): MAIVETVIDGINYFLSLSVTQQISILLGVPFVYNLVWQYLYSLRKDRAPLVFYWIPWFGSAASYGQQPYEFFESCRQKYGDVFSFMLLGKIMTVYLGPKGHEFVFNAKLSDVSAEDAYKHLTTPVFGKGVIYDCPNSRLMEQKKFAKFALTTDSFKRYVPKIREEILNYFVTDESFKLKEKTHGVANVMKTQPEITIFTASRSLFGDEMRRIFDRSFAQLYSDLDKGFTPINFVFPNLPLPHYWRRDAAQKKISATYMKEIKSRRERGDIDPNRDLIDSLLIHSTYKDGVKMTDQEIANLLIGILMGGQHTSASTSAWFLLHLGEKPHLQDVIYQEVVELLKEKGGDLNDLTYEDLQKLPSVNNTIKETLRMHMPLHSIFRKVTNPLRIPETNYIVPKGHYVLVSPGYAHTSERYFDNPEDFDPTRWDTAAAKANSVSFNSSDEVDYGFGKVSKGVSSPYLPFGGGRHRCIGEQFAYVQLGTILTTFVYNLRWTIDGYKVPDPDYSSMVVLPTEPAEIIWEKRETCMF
Chain of Heat shock protein 90 homolog (P46598 whole entry): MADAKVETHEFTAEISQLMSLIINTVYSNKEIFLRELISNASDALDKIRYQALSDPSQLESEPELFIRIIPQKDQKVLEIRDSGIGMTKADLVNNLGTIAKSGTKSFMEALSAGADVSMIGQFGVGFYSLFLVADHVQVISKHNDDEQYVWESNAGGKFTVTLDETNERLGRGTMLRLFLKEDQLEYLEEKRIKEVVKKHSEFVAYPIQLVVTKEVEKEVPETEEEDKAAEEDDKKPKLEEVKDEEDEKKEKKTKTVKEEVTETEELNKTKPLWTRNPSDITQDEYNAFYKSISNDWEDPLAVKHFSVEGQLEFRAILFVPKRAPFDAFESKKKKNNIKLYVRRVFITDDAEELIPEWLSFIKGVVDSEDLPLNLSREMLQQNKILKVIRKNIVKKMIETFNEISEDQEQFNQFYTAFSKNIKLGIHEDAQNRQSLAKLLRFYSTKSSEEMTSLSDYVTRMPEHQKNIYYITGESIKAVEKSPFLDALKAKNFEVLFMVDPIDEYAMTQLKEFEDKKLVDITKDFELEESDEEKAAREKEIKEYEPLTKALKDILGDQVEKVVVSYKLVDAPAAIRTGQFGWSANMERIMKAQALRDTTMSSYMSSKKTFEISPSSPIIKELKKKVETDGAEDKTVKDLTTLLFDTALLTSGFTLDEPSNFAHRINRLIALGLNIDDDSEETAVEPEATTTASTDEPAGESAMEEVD

With `CCN(C(=O)c1cc(-c2ccc(C)cc2)c(O)cc1O)c1ccc(CN2CCN(CC(O)(Cn3cncn3)c3ccc(F)cc3F)CC2)cc1` (configuration not stated) the MIC80 [1] was 8 µg/mL (≈ 11.7 µM), the Activity [2] was 7.39 log10CFU/ml and the Activity [3] was 5.83 log10CFU/ml. The Activity [4] was “Active”, the Activity [5] was “Dose-dependent-effect” and the Activity [6] was 6.14 log10CFU/ml. The IC50 at 72 h [7] was 2100 nM, the MIC80 [8] was 0.004 µg/mL (≈ 0.00586 µM) and the inhibition [9] was “Active; Inhibitory Effect Was Superior Than Flc”. For the same compound, the MIC80 [10] was 16 µg/mL (≈ 23.4 µM), the Activity [11] was “Active” and the inhibition [12] was “Active; Activity Was Superior Than Flc”. For the same compound, the “inhibition (INH)” value [13] was “Active”, the Activity [14] was “Active” and the “inhibition (INH)” value [15] was “Active”. For the same compound, the IC50 [16] was 740 nM, the Activity [17] was 5.47 log10CFU/ml and the Activity [18] was “Active”. For the same compound, the inhibition [19] was “Dose-dependent-effect; Result Indicated That Compound Was More Potent Than Flc”, the inhibition at 4 µg/mL [20] was greater than 80% and the “inhibition (INH)” value [21] was “Active”. For the same compound, the MIC80 [22] was 4 µg/mL (≈ 5.86 µM), the IC50 [23] was 6630 nM and the Activity [24] was “Active”. For the same compound, the Activity [25] was “Active”, the Activity [26] was “Active” and the Activity [27] was “Active”. The Activity [28] was “Active”, the Ratio [29] was 16 and the inhibition [30] was “Dose-dependent-effect”. The IC50 at 72 h [31] was 2100 nM, the inhibition at 0.5 µg/mL [32] was greater than 50% and the inhibition at 8 µg/mL [33] was 100%. For the same compound, the “inhibition (INH)” value [34] was “Active”, the Activity [35] was “Active” and the MIC80 [36] was 0.063 µg/mL (≈ 0.0923 µM). For the same compound, the “inhibition (INH)” value [37] was “Active”, the inhibition [38] was “Active; Activity Was Superior Than Flc” and the inhibition at 32 µg/mL [39] was roughly 100%. It also gave an inhibition at 32 µg/mL [40] of 100%.
`CCNC(=O)c1noc(-c2cc(-c3ccc(C)cc3)c(O)cc2O)c1-c1ccc(CN2CCN(C(=O)CCCOc3ccc(CN(C)CC(O)(Cn4cncn4)c4ccc(F)cc4F)cc3)CC2)cc1` (configuration not stated) gave an MIC80 [1] of 16 µg/mL (≈ 16.8 µM), an MIC80 [10] greater than 64 µg/mL and an MIC80 [22] of 4 µg/mL (≈ 4.19 µM). For the same compound, the MIC80 [36] was 8 µg/mL (≈ 8.38 µM).
In the case of `CCN(C(=O)c1cc(-c2ccc(C)cc2)c(O)cc1O)c1ccc(CN2CCN(C(=O)CCCOc3ccc(CN(C)CC(O)(Cn4cncn4)c4ccc(F)cc4F)cc3)CC2)cc1` (configuration not stated), the MIC80 [1] is reported as 16 µg/mL (≈ 18 µM), the MIC80 [10] is reported as 16 µg/mL (≈ 18 µM) and the MIC80 [22] is reported as 4 µg/mL (≈ 4.5 µM). The MIC80 [36] was 8 µg/mL (≈ 9.01 µM).
With `CCNC(=O)c1noc(-c2cc(-c3ccc(C)cc3)c(O)cc2O)c1-c1ccc(CN2CCN(C(=O)CCCCCOc3ccc(CN(C)CC(O)(Cn4cncn4)c4ccc(F)cc4F)cc3)CC2)cc1` (configuration not stated) the MIC80 [1] was 16 µg/mL (≈ 16.3 µM), the MIC80 [10] was greater than 64 µg/mL and the MIC80 [22] was 4 µg/mL (≈ 4.07 µM). For the same compound, the MIC80 [36] was 4 µg/mL (≈ 4.07 µM).
